Reference: article PMC8706783 (Pharmaceutics, 2021)
pIC50: −log10 of the molar value. Where two headings read alike, the source gives them in different places.

How the values were obtained:
[1] = target: T1, CYP1A1 (Homo sapiens, UniProt P04798); assay: Enzyme inhibition assay, CYP1A1; format: in vitro ADME; design: purchased Xenotech LLC; details: Recombinant CYP1A1; phenacetin-O-deethylation
T1 sequence (P04798 1-512): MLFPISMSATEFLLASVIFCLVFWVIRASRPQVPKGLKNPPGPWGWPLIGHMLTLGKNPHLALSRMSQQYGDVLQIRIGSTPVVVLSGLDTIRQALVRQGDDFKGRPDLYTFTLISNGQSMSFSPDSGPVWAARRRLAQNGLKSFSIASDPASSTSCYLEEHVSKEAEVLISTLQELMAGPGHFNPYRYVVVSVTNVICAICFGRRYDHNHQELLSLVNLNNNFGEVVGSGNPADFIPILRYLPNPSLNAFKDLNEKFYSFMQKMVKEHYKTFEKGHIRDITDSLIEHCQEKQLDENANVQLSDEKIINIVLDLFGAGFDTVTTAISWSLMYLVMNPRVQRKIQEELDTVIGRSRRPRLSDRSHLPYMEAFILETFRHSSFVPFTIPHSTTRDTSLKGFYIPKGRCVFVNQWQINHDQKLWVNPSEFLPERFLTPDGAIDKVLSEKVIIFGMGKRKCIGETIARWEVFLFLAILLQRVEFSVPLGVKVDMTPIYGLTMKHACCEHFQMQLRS

[2] = target: T2, UGT1A1 (Homo sapiens, UniProt P22309); assay: Enzyme inhibition assay, UGT1A1; format: in vitro ADME
T2 construct: from tissue
T2 sequence (P22309 26-533): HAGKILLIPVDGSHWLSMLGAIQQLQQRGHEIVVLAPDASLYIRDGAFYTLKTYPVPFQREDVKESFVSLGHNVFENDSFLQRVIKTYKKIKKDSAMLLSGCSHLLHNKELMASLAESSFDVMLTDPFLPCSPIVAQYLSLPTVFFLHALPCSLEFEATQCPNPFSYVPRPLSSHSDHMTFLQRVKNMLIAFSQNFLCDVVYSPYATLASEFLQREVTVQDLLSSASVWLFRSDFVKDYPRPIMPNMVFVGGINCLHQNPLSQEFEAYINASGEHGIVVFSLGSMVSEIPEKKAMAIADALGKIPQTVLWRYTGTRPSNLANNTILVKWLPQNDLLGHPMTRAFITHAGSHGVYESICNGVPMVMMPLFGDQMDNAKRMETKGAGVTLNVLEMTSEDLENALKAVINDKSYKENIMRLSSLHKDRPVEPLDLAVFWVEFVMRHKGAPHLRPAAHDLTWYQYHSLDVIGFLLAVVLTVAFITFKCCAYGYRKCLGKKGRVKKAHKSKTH

[3] = target: T3, UGT1A9 (Homo sapiens, UniProt O60656); assay: Enzyme inhibition assay, UGT1A9; format: in vitro ADME; design: from tissue; details: HLM; UGT1A9 mycophenolic acid glucuronidation
T3 sequence (O60656 26-530): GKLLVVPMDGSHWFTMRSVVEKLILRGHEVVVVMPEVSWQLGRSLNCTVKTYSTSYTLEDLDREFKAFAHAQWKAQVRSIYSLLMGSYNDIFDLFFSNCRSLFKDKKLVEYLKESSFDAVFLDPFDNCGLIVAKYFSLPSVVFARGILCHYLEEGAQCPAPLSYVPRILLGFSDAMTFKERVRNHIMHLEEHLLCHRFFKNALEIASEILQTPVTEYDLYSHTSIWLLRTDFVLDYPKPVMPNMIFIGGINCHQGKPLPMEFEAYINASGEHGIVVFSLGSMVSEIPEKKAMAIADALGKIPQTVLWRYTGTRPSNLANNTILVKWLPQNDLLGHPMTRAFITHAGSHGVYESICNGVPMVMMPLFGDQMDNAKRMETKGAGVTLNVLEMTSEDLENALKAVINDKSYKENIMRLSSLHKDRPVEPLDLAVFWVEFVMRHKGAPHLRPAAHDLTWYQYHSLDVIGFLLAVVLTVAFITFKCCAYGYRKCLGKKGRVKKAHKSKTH

[4] = women, cited from earlier work; for Cmax: plasma, ref IPM 028
[5] = target: T4, UGT1A3 (Homo sapiens, UniProt P35503); assay: Enzyme inhibition assay, UGT1A3; format: in vitro ADME; design: from tissue; details: HLM; UGT1A3 chenodeoxycholic acid 24 O-glucuronidation
T4 sequence (P35503 29-534): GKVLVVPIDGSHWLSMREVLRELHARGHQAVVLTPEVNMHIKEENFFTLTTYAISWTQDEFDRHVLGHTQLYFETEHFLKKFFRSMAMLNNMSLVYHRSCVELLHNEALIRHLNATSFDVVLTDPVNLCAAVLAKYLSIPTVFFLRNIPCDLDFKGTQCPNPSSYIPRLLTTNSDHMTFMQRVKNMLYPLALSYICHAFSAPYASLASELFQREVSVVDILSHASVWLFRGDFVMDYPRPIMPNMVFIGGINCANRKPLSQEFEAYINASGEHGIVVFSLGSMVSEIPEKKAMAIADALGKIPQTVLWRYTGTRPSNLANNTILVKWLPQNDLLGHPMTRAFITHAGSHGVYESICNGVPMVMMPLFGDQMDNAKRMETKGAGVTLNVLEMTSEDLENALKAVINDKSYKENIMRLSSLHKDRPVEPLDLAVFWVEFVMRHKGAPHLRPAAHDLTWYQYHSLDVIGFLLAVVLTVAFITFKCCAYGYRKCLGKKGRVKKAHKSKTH

[6] = target: T5, CYP1A2 (Homo sapiens, UniProt P05177); assay: Enzyme inhibition assay, CYP1A2
T5 sequence (P05177 1-516): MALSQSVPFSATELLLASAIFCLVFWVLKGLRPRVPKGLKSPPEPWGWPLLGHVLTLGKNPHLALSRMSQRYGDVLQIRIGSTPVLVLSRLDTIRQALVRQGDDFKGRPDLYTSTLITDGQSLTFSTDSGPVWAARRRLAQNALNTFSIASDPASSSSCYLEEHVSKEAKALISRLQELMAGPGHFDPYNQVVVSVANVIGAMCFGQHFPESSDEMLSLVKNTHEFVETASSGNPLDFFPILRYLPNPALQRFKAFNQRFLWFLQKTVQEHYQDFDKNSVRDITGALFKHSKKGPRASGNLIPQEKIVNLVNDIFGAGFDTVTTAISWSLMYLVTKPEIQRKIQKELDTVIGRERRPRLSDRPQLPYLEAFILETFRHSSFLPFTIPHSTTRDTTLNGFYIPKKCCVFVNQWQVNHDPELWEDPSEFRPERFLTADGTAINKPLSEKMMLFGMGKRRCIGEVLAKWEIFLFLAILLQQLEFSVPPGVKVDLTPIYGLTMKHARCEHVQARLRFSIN

In the case of `Clc1ccc(COC(Cn2ccnc2)c2ccc(Cl)cc2Cl)c(Cl)c1` (centres unmarked) [MIC, miconazole], the pIC50 [1] was 6.37, the IC50 ([2]; HLM, UGT1A1 SN38 glucuronidation) was “Apparent activation with MIC” and the Emax at 15 min, 30 µM ([2]; human, human liver microsomes, probe SN38 (0.5 µM), SN38 glucuronidation, read-out: maximum activation of SN38 glucuronidation) was 607%. For the same compound, the pIC50 [3] was under 4.52, the Cmax ([4]; after MIC vaginal capsule alone) was 7.61 ± 3.13 ng/mL and the pIC50 [5] was 4.87. For the same compound, the pIC50 [6] was 5.29.
With `Cc1cc(C)c(Nc2ccnc(Nc3ccc(C#N)cc3)n2)c(C)c1` [DPV, Dapivirine] the pIC50 [1] was 6.30, the pIC50 ([2]; HLM, UGT1A1 SN38 glucuronidation, read-out: IC50) was 5.28 and the pIC50 [3] was under 4.52. The “increase in systemic exposure to DPV” value ([4]; concomitant use of DPV ring and MIC vaginal capsule compared to DPV ring alone) was 20%, the Cmax ([4]; after DPV ring administration alone) was 0.462 ± 0.288 ng/mL and the pIC50 [5] was 4.77. It also gave a pIC50 [6] of 4.98.
